In patent US6162809A, “Pyridylthio compounds for controlling helicobacter bacteria” (Byk Gulden Lomberg Chemische Fabrik GmbH, priority 1994, dated 2000):
Counter-ions that a name gives are not always drawn.

Tested on: Helicobacter pylori
Test: activity against Helicobacter pylori (Columbia agar, growth period of 4 days)
Type: cell-based
Conditions: Columbia agar (Oxoid), approximate values

Compound	Approx. MIC 50
4-[3-(4-Phenyl-1-piperazinyl)propylthio]-2-[(4-pyridinylthio)methyl]pyridine [Compound 16]	≤ 0,5 μg/ml

Same assay, conditions: Helicobacter pylori, 96 h, Columbia agar (Oxoid), approximate values, read-out: Approx. MIC 50

Compound	MIC50 [µg/mL]
Cc1ncsc1CCSc1ccnc(CSc2ccccn2)c1C [Compound 3, 3-Methyl-4-[2-(4-methyl-5-thiazolyl)ethylthio]2-[(2-pyridinylthio)methyl]pyridine]	≤ 0.5
Cc1c(SCCCSc2ccncc2)ccnc1CSc1ccccn1 [Compound 6]	≤ 0.5
Cc1c(SCc2ccco2)ccnc1CSc1ccncc1 [Compound 11, 4-(2-Furylmethylthio)-3-methyl-2-[(4-pyridinylthio)methyl]pyridine]	≤ 0.5
Cc1c(SCCCSc2ccncc2)ccnc1CSc1ccncc1 [Compound 14, 3-Methyl-2-[(4-pyridinylthio)methyl]-4-[5-(4-pyridinyl)-1,5-dithiapentyl]pyridine]	≤ 0.5
Cc1c(SCCCSC(=S)N(C)C)ccnc1CSc1ccncc1 [Compound 15, 4-[(3-Dimethyldithiocarbamoyl)propylthio]-3-methyl-2-[(4-pyridinylthio)methyl]pyridine]	≤ 0.5
Cc1c(SCCCSCCn2c([N+](=O)[O-])cnc2C)ccnc1CSc1ccncc1 [Compound 29, 4-[[7-(2-Methyl-5-nitroimidazol-1-yl)-1,5-dithiahept-1-yl]-3-methyl]-2-[(4-pyridinylthio)methyl]-pyridine dihydrochloride]	≤ 0.5
Cc1c(SCCCn2c([N+](=O)[O-])cnc2C)ccnc1CSc1ncccn1 [Compound 32, 3-Methyl-4-[3-(2-methyl-5-nitroimidazol-1-yl)propylthio]-2-[(2-pyrimidinylthio)methyl]pyridine]	≤ 0.5
